In ChEMBL document CHEMBL1129703, “Lipophilic bioisosteres of nucleoside triphosphates” (Bioorg Med Chem Lett, 1996) one finds CC50, EC50 and IC50 data, which are given here for 17 compounds.

Test [1] concerns JM1. Kind of test: Concentration required to reduce cell viability of JM cells by 50%. Format: functional, Homo sapiens.
Test [2] concerns C8166. Kind of test: Anti-HIV activity against HIV-1 infected C8166 cell lines. Format: functional, cell-based, Human immunodeficiency virus 1.
Test [3] concerns C8166. Kind of test: Cytotoxicity in C8166 cell lines. Format: functional, Homo sapiens.
The test system of test [4] is JM1. Kind of test: Anti-HIV activity against HIV-1 infected JM cell lines. Format: functional, cell-based.
Test [5] deals with Human immunodeficiency virus type 1 reverse transcriptase (Human immunodeficiency virus 1, UniProt Q72547). Kind of test: Inhibition of HIV-1 reverse transcriptase.
Test [6] deals with CCRF-CEM. Kind of test: Anti-HIV activity against HIV-1 infected CEM/0 cell lines. To be noted: Homo sapiens. Type of test: functional, cell-based.
The subject of test [7] is CCRF-CEM. Put plainly: Concentration required to reduce cell viability of CEM/0 cells by 50%. Type of test: functional. The note with it: Homo sapiens.
Test [8] concerns CCRF-CEM. Put plainly: Anti-HIV activity against HIV-2 infected CEM/0 cell lines. Format: functional, cell-based. The note with it: Homo sapiens.
The subject of test [9] is MT2. Kind of test: Concentration required to reduce cell viability of MT2 cells by 50%. Format: functional. The note with it: Homo sapiens.
In test [10] the test system is MT2. Put plainly: Anti-HIV activity against HIV-2 infected MT2 cell lines. Format: functional, cell-based, Homo sapiens.
The test system of test [11] is C8166. Put plainly: Concentration of compound required to reduce cell viability of C8166 cells by 50%. Type of test: functional. The note with it: Homo sapiens.
The test system of a further test is CEM-TK(-). Kind of test: Anti-HIV activity against HIV-2 infected CEM/TK- cell lines. To be noted: Homo sapiens.

The CC50 is the concentration at which the toxic effect on the cells reaches its halfway point. A lower CC50 goes with greater toxicity to the cells. As a reminder, the EC50 is the concentration needed to bring the measured effect to its halfway point. A higher EC50 goes with a less potent agent. `Cc1cn([C@H]2C[C@H](N=[N+]=[N-])[C@@H](COC(=O)CC3(C)CC(C)(O)CO3)O2)c(=O)[nH]c1=O` (stereo in doubt; 13): the CC50 in the test on JM1 [1] was determined as 1000 µM; in the test on C8166 [3] it was 500 µM. The concentration giving a half-maximal response (EC50) in the test on C8166 [2] (c8166) turned out to be 0.04 µM; in the test on JM1 [4] (jm1) it was 200 µM.
As usually defined, the IC50 is the concentration that gives 50% inhibition. The low end stands for greater potency in that assay, the high end for weaker potency in that assay. For the compound `CSCO[C@@]1(C)CO[C@@](C)(CC(=O)OC[C@H]2O[C@@H](n3cc(C)c(=O)[nH]c3=O)C[C@@H]2O[Si](C)(C)C(C)(C)C)C1`, the CC50 in the test with JM1 [1] (Homo sapiens, JM1) is 80 µM; in the test with C8166 [3] (Homo sapiens, C8166), 80 µM; in the test on CCRF-CEM [7], 36 µM. Besides, the EC50 is 16 µM with C8166 [2] (Homo sapiens, C8166); > 10 µM with CCRF-CEM [6]; > 10 µM in the test on CCRF-CEM [8]; 16 µM with JM1 [4] (Homo sapiens, JM1). The 50% inhibitory concentration (IC50) in test [5] was > 100 µM.
For the compound `CC1=CN([C@H]2C[C@H](O)[C@@H](COC(=O)C[C@@]3(C)C[C@@](C)(O)CO3)O2)C(=O)NC1`, the cytotoxic concentration (CC50) is > 500 µM in the test with JM1 [1] (Homo sapiens, JM1); > 1 mM in the test on MT2 [9]; > 500 µM in the test with C8166 [3] (Homo sapiens, C8166). Besides, the half-maximal effective concentration (EC50) with C8166 [2] (Homo sapiens, C8166) came to 8 µM; in the test with MT2 [10] (Homo sapiens, MT2), 4 µM; in the test with JM1 [4] (Homo sapiens, JM1), 40 µM.
In the case of `Cc1cn([C@H]2C[C@H](O[Si](C)(C)C(C)(C)C)[C@@H](COC(=O)CC3(C)CC(C)(O)CO3)O2)c(=O)[nH]c1=O` (stereo in doubt; form 1), the CC50 amounted to 200 µM in the test with JM1 [1] (Homo sapiens, JM1); 0.2 mM in the test with MT2 [9]; 200 µM in the test with C8166 [3] (Homo sapiens, C8166). In addition, the concentration for a half-maximal effect (EC50) with C8166 [2] (Homo sapiens, C8166) amounted to 20 µM; with MT2 [10] (Homo sapiens, MT2), 20 µM; in the test on JM1 [4] (Homo sapiens, JM1) it was 20 µM.
On to `Cc1cn([C@H]2C=C[C@@H](CNC(=O)CC3(C)CC(C)(O)CO3)O2)c(=O)[nH]c1=O` (stereo in doubt; form 2), for which the values for the concentration giving a half-maximal response (EC50) in the test on C8166 [2] (c8166), in the test with MT2 [10] (mt2) and in the test on JM1 [4] (jm1) were > 500 µM, > 500 µM and 500 µM, respectively.
On to `Cc1cn([C@H]2C[C@H](N=[N+]=[N-])[C@@H](COC(=O)CC3(C)CC(C)(O)CO3)O2)c(=O)[nH]c1=O` (stereo in doubt; form 1), for which the CC50 in the test on JM1 [1] was > 1000 µM. Also, the values for the EC50 in the test on C8166 [2] (c8166), in the test on MT2 [10] (mt2) and in the test on JM1 [4] (jm1) were 0.064 µM, 0.064 µM and 100 µM, respectively.
`Cc1cn([C@H]2C[C@H](O[Si](C)(C)C(C)(C)C)[C@@H](COC(=O)CC3(C)CC(C)(O)CO3)O2)c(=O)[nH]c1=O` (stereo in doubt; form 2): the half-maximal effective concentration (EC50) in the test on C8166 [2] (c8166), in the test with MT2 [10] (mt2) and with JM1 [4] (jm1) was 10 µM in each case.
For the compound `Cc1cn([C@H]2C[C@H](O)[C@@H](COC(=O)C[C@@]3(C)C[C@@](C)(O)CO3)O2)c(=O)[nH]c1=O`, the 50% cytotoxic concentration (CC50) with JM1 [1] (Homo sapiens, JM1) is > 1000 µM; with MT2 [9], > 1 mM; in the test on C8166 [3] (Homo sapiens, C8166) it was > 1000 µM. The EC50 with C8166 [2] (Homo sapiens, C8166) is > 1000 µM; with MT2 [10] (Homo sapiens, MT2), 1000 µM; in the test on JM1 [4] (Homo sapiens, JM1), 500 µM.
As for `Cc1cn([C@H]2C[C@H](O[Si](C)(C)C(C)(C)C)[C@@H](CO)O2)c(=O)[nH]c1=O`, the 50% cytotoxic concentration (CC50) with JM1 [1] (Homo sapiens, JM1) came to 400 µM; in the test on C8166 [3] (Homo sapiens, C8166), 400 µM. The half-maximal effective concentration (EC50) with C8166 [2] (Homo sapiens, C8166) was found to be 16 µM; with JM1 [4] (Homo sapiens, JM1) it was 20 µM.
Regarding `CSCO[C@@]1(C)CO[C@](C)(CC(=O)OC[C@H]2O[C@@H](N3C=C(C)CNC3=O)C[C@@H]2O)C1`, the cytotoxic concentration (CC50) was 400 µM in the test with JM1 [1] (Homo sapiens, JM1); 400 µM in the test on C8166 [11]; > 250 µM with CCRF-CEM [7]. For the same compound, the concentration giving a half-maximal response (EC50) with C8166 [2] (Homo sapiens, C8166) is 16 µM; in the test on CCRF-CEM [6], 6 µM; in the test with CCRF-CEM [8] it was 3.1 µM; with CEM-TK(-), > 250 µM; in the test with JM1 [4] (Homo sapiens, JM1), 200 µM. Besides, the IC50 in test [5] is > 100 µM.
In the case of `Cc1cn([C@H]2C[C@H](N=[N+]=[N-])[C@@H](COC(=O)CC3(C)CC(C)(O)CO3)O2)c(=O)[nH]c1=O` (stereo in doubt; form 2), the CC50 in the test with JM1 [1] is 400 µM; in the test with MT2 [9] it was > 1 mM; in the test on C8166 [3] (Homo sapiens, C8166) it was > 1000 µM. For the same compound, the EC50 in the test on C8166 [2] (c8166) was determined as 8 µM; in the test on MT2 [10] (mt2), 4 µM; in the test on JM1 [4] (jm1), 400 µM.
As for `CSCOC1(C)COC(C)(CC(=O)O)C1` (centres undefined), the CC50 in the test on JM1 [1] (Homo sapiens, JM1) was > 1000 µM; with C8166 [3] (Homo sapiens, C8166), > 1000 µM; in the test on CCRF-CEM [7] it was > 250 µM. The EC50 in the test with C8166 [2] (Homo sapiens, C8166) was > 1000 µM; in the test with CCRF-CEM [6], > 250 µM; in the test on CCRF-CEM [8], > 250 µM; in the test with CEM-TK(-) it was > 250 µM; in the test with JM1 [4] (Homo sapiens, JM1), > 1000 µM. In addition, the IC50 in [5] was > 100 µM.
On to `CSCOC1(C)COC(C)(CC(=O)OC[C@H]2O[C@@H](n3cc(C)c(=O)[nH]c3=O)C[C@@H]2N=[N+]=[N-])C1` (some centres undefined), for which the cytotoxic concentration (CC50) was determined as 500 µM in the test with JM1 [1] (Homo sapiens, JM1); 500 µM in the test on C8166 [11]; 233 µM with CCRF-CEM [7]. The EC50 was 0.32 µM in the test with C8166 [2] (Homo sapiens, C8166); 0.2 µM in the test on CCRF-CEM [6]; 0.14 µM with CCRF-CEM [8]; > 250 µM with CEM-TK(-); 100 µM in the test with JM1 [4] (Homo sapiens, JM1). In addition, the half-maximal inhibitory concentration (IC50) in [5] is > 100 µM.
`CSCO[C@@]1(C)CO[C@@](C)(CC(=O)OC[C@H]2O[C@@H](n3cc(C)c(=O)[nH]c3=O)C[C@@H]2O)C1`: the CC50 in the test on JM1 [1] (Homo sapiens, JM1) is 400 µM; in the test with C8166 [3] (Homo sapiens, C8166) it was 1000 µM; with CCRF-CEM [7], > 250 µM. Moreover, the 50% effective concentration (EC50) in the test on C8166 [2] (Homo sapiens, C8166) was 200 µM; in the test with CCRF-CEM [6], 200 µM; with CCRF-CEM [8], 88 µM; in the test with CEM-TK(-), > 250 µM; in the test with JM1 [4] (Homo sapiens, JM1), 200 µM. The concentration for half-maximal inhibition (IC50) in test [5] is > 100 µM.
As for `Cc1cn([C@H]2C=C[C@@H](CNC(=O)CC3(C)CC(C)(O)CO3)O2)c(=O)[nH]c1=O` (stereo in doubt; form 1), the CC50 with JM1 [1] (Homo sapiens, JM1) was > 500 µM; in the test with MT2 [9], > 0.5 mM; in the test with C8166 [3] (Homo sapiens, C8166), > 500 µM. Also, the EC50 in the test with C8166 [2] (Homo sapiens, C8166) was found to be 500 µM; in the test with MT2 [10] (Homo sapiens, MT2), 500 µM; with JM1 [4] (jm1), 200 µM.
As to `CSCOC1(C)COC(C)(CC(=O)NC[C@@H]2C=C[C@H](n3cc(C)c(=O)[nH]c3=O)O2)C1` (some centres undefined), the cytotoxic concentration (CC50) in the test with JM1 [1] (Homo sapiens, JM1) is > 1000 µM; in the test on MT2 [9], > 1 mM; in the test with C8166 [3] (Homo sapiens, C8166), > 1000 µM. For the same compound, the EC50 with C8166 [2] (Homo sapiens, C8166) came out at 400 µM; with MT2 [10] (Homo sapiens, MT2) it was 200 µM; with JM1 [4] (Homo sapiens, JM1), 500 µM.
Consider `Cc1cn([C@H]2C[C@H](N=[N+]=[N-])[C@@H](CO)O2)c(=O)[nH]c1=O` [ZIDOVUDINE], for which the CC50 in the test on JM1 [1] (Homo sapiens, JM1) was > 1000 µM; in the test with C8166 [3] (Homo sapiens, C8166) it was > 1000 µM; in the test with CCRF-CEM [7], > 250 µM. In addition, the IC50 in test [5] was > 100 µM. The EC50 in the test on CEM-TK(-) is > 250 µM; with JM1 [4] (Homo sapiens, JM1), 200 µM.
